Measured values as given in publication PMC10419174, “WR1065 conjugated to thiol-PEG polymers as novel anticancer prodrugs: broad spectrum efficacy, synergism, and drug resistance reversal” (Frontiers in Oncology, 2023).
Values joined by “and” are separate entries in the source; they are usually repeats but may differ in a detail not shown here. Equal entries are not always repeated. Where two headings read alike, the source gives them in different places. Marks after values point to notes of the source that are not given here.

Key:
[1] = system: NCI-H1437 NSCLC cells
Procedure: (§1) The percentage of growth inhibition was calculated as follows: […]

[2] = system: Mammary gland HCC38 cells; assay: CyQUANT-NF proliferation assay, 48-h drug treatment; type: cell-based; conditions: for Relative cell inhibition: 99% confluent cells, 48 h
[3] = system: Mammary gland MDA-MB-231 cells; assay: as above; type: cell-based
Procedure: Since the BRG prodrugs are composed of WR1065 as one of the major constituents, assays were conducted to determine if factors reported to modulate the activity of amino acid and polyamine plasma membrane transport systems impacted the efficacy of 4SP65 or 1LP65 in selected cancer cell lines. HL60 cells were exposed to 4SP65 with up to 0.5 mM NaCl, MBA-MD-231 cells were tested in the presence and absence of medium supplemented with estradiol plus insulin (in the BulletKit™ for growth supplements for NHMECs), HCC38 cells were exposed to 4SP65 with and without 10 µM insulin added to the growth medium, and multiple cells lines were pretreated for 24 h with 1 mM DFMO prior to starting exposures to 4SP65.
as §1

[4] = system: Strain-2 and Strain-3 NHMECs; type: cell-based; conditions: 48 h; for IC50: read-out: IC50
Excerpt: Normal human mammary epithelial cell (NHMEC) strains used to assess potential cytotoxicity of 4SP65 and 1LP65 were established from reduction mammoplasty tissue from a healthy donor (M99005 or ‘Strain-1’) ([53]) or purchased from ATCC (Manassas, VA, USA; batch#70043304 or ‘Strain-2’) or Cell Applications (San Diego, CA, USA; lot#1669 or ‘Strain-3’). Human cancer cell lines including HCC38, MDA-MB-231, A549, National Cancer Institute (NCI)-H460, NCI-H1437, NCI-H1975, DU145, LNCaP, PC3, PANC1, SKOV3, and HL60, which were free of Mycoplasma, were purchased from ATCC. HMESO1, PPMMill, and TOV21G cells, obtained from Dr. Brian Cunniff, were verified to be Mycoplasma negative using the LookOut® Mycoplasma PCR Detection Kit (Sigma-Aldrich) and to match previously annotated DNA fingerprints by the Vermont Integrative Genomics Resource DNA Analysis Facility.
To assess the effects of 4SP65 or 1LP65 on the growth of normal epithelium, experiments were performed using NHMEC strains from differing donors ([53]). Strain-1 NHMECs were plated at 5,000 cells/well in 24-well plates and allowed to reach 50% confluence before treatment with 0-150 µM 4SP65 for 48 h. Cell viability was determined using a hemocytometer and trypan blue exclusion assay. Two other NHMEC strains, exposed to 0-150 µM 4SP65 or 0-500 µM 1LP65 for 48 h, were handled in the same fashion except that viability of cells in 96-well plates was determined using CyQUANT dye. Due to the short life span of these NHMECs, standard curves were not generated and fluorescence readings were used as a surrogate marker of cell number ([54]).

[5] = Solubility, storage and stability of 4SP65 and 1LP65; type: physicochemical
Procedure: prepared for use and that was not altered by the solvent used, heating up to 37 °C for up to 3 days, and shaking or rocking for up to 3 days at RT or 4°C. For experiment, an aliquot of drug was first mixed in medium, the solvent was removed and saved, and gel pieces were recovered, dried on a vacuum pump, […]
The difference in the starting weight of drug placed into solvent minus the weight of the residue after drying on a vacuum pump was considered to represent the amount of drug that went into solution. The amount of drug that was dissolved at a given time ranged from 40 to 61%, averaging 50.7 ± 8.1% (SD). The weight of the 4SP65 in solution was then used for diluting the drug to concentrations of 200 or 400 µM in supplemented RPMI or DMEM/F12 medium for routine treatment of cells. The dried residue was not used in the in vitro drug efficacy studies. The formation of a gel in the aqueous solvents tested was unexpected since […]
few free thiols in polymer arms of the PEG scaffold for cross-linking reactions to occur. However, unintended topical entanglements between polymer chains of multi-arm PEG-thiol molecules without disulfide formation have been reported (Tang and Bradley 2014 24860800). Aliquots of 4SP65 dissolved in FBS enriched medium has remained stable for >6 months while remnants of the original viscous polymer have maintained stability without any apparent loss of activity when stored for 60 […]
However, the bulk of the product was dissolved at 40 mM in DMSO and stored in aliquots at −80°C for future use once by further dilution in DMSO and then final dilution in medium for treatment of normal human epithelium and human cancer cell lines at working solutions of 4 mM or 400 µM drug. 1LP65 has maintained stability for six months in frozen aliquots but should be stable in DMSO at −80°C for two to three years based upon recommended storage conditions for cystamine dihydrochloride (Selleck Chemical product information), an analogous 225 Da compound with a disulfide bond and amine groups like 1LP65. […]

[6] = system: NCI-H460 NSCLC cells; conditions: for Fold increase in efficacy: drug alone ÷ drug in 4SP65-DDP combination
Excerpt: To test anticancer effectiveness of individual drugs or drug combinations, the CyQUANT®-NF proliferation assay was used with a plate reader (i) to generate standard curves for cell numbers for each cell line, (ii) to measure the starting cell numbers at initiation of drug treatment, and (iii) to obtain fluorescence readings from cells in 96-well plates for comparisons to a standard curve for the relevant cancer cell line and quantifying cell viability after drug treatments. […] Trypan blue exclusion was used to estimate cell numbers in a few pilot experiments and thereafter was applied to confirm very low viable cell numbers and cell death.
A series of experiments was conducted to determine the relative efficacy of 4SP65, 1LP65, and amifostine as single agents in the same human cancer cell lines.
Five metrics were calculated and used to characterize the shape of the dose-response curve following exposure to a single test agent. Using cell numbers based on fluorescence measurements and standard curves, the percentage growth was calculated at each drug concentration level. The percentage of growth inhibition was calculated as follows:
where Tz = cell numbers or fluorescence counts at time xero, C = vehicle-exposed control cell numbers at the end of the assessment time period, and Ti = test agent-exposed cell numbers or fluorescence counts at each drug concentration. […] The LC50/99 was calculated using Equation 2 = -50 and Eq. 2 = -99, respectively. […] For NHMECs, the relationships between drug exposure levels and fluorescence units were used to define dose-response metrics. The selectivity index values for individual drugs were calculated using IC50 levels in NHMECs divided by the IC50 value for each cancer cell line. Statistical comparisons of differences in individual dose-response metrics between drug treatments and cell lines were conducted using Student’s t-test, with P-values <0.05 considered significant.
Relative cell growth inhibition values for differing levels of each drug alone and in combination were input into SynergyFinder to generate dose-response curves for each drug alone and to produce a dose-response matrix. The dose-response matrix data then were used in generating a two-dimension heatmap and three-dimension volcano plot to visualize the distribution of areas of differing degrees of synergism and to calculate average and maximum synergy scores in selected human cancer cell lines. The expected drug combination responses were calculated using both the Highest Single Agent (HSA) model and the Zero interaction potency (ZIP) model.

[7] = 48-h treatment, amifostine ND = not definable up to 500 µM
[8] = aqueous solvents/medium, remainder formed a gel
[9] = drug alone, 48 h, 4SP65/cisplatin study
[10] = drug alone, 48 h, 4SP65/cisplatin study, ND = not definable, highest concentration in parentheses

Substance: 4-star-PEG-S-S-WR1065 [4SP65]
- CC50 [1]: 19.6 ± 0.7 µM
- GI50 [1, 7]: 10.6 ± 2 µM
- IC50 [1, 7]: 12.5 ± 2.6 µM
- LC99 [1, 7]: 21.1 ± 0.2 µM
- TGI [1, 7]: 16.3 ± 1.9 µM
- Dose reduction value 1LP65 ÷ 4SP65 ([1]; at GI50): 6.5 fold
- Dose reduction value 1LP65 ÷ 4SP65 ([1]; at IC50): 6.0 fold
- Dose reduction value 1LP65 ÷ 4SP65 ([1]; at LC50): 8.0 fold
- Dose reduction value 1LP65 ÷ 4SP65 ([1]; at LC99): 11 fold
- Dose reduction value 1LP65 ÷ 4SP65 ([1]; at TGI): 6.3 fold
- CC50 [2]: 6.8 ± 0.9 µM
- GI50 [2, 7]: 1.3 ± 0.4 µM
- IC50 [2, 7]: 4.1 ± 0.2 µM
- LC99 [2, 7]: 11.9 ± 1.6 µM
- TGI [2, 7]: 3.7 ± 0.3 µM
- Relative cell inhibition ([2]; 10 µM 4SP65 alone): 3.4 ± 10.9%
- Relative cell inhibition ([2]; 10 µM 4SP65 with 10 µM insulin): 42 ± 6.5%
- selectivity index ([2]; IC50 in NHMECs ÷ IC50 in HCC38, average): > 31
- Dose reduction value 1LP65 ÷ 4SP65 ([2]; at GI50): 28 fold
- Dose reduction value AMF ÷ 4SP65 ([2]; at GI50): 60 fold
- Dose reduction value 1LP65 ÷ 4SP65 ([2]; at IC50): 12 fold
- Dose reduction value AMF ÷ 4SP65 ([2]; at IC50): 67 fold
- Dose reduction value 1LP65 ÷ 4SP65 ([2]; at LC50): 8.8 fold
- Dose reduction value 1LP65 ÷ 4SP65 ([2]; at LC99): 7.1 fold
- Dose reduction value 1LP65 ÷ 4SP65 ([2]; at TGI): 13 fold
- Dose reduction value AMF ÷ 4SP65 ([2]; at TGI): 69 fold
- fold increase in drug efficacy with insulin ([2]; growth-arrested cells): 12.4 fold
- CC50 [3]: 9.2 ± 1.2 µM
- IC50 [3, 7]: 4.7 ± 0.9 µM
- LC99 [3, 7]: 11.0 ± 1.8 µM
- TGI [3, 7]: 6.6 ± 1.0 µM and 6.6 µM
- selectivity index ([3]; IC50 in NHMECs ÷ IC50 in MDA-MB-231, average): > 26
- Dose reduction value 1LP65 ÷ 4SP65 ([3]; at GI50): 26 fold
- Dose reduction value 1LP65 ÷ 4SP65 ([3]; at IC50): 15 fold
- Dose reduction value 1LP65 ÷ 4SP65 ([3]; at LC50): 15 fold
- Dose reduction value 1LP65 ÷ 4SP65 ([3]; at LC99): 14 fold
- Dose reduction value 1LP65 ÷ 4SP65 ([3]; at TGI): 21 fold
- fold increase in drug efficacy at the TGI level with hormones ([3]; insulin plus estradiol): ~4 fold
- TGI ([3]; with insulin plus estradiol, 48 h): 1.2 µM
- TGI ([3]; without hormones, 48 h (pilot experiment)): 4.6 µM
- IC50 ([4]; Strain-2 NHMECs): > 150 µM
- growth enhancement ([4]; Strain-2 and Strain-3 cells, 3 µM): 162% ± 7%
- growth relative to control cells ([4]; Strain-2 and Strain-3 cells, 9 µM): 78% ± 12%
- growth relative to control cells ([4]; Strain-2 and Strain-3 cells, 30 µM): 52% ± 8%
- growth relative to control cells ([4]; Strain-2 and Strain-3 cells, 90 µM): 21% ± 4%
- growth relative to control cells ([4]; Strain-2 and Strain-3 cells, 150 µM): 8.7% ± 2%
- IC50 ([4]; Strain-3 NHMECs): 76 ± 14 µM
- highest level testable based upon maximum solubility in aqueous medium [5]: 150 µM
- storage time with maintained stability without apparent loss of activity [5]: 60 months
- time remained stable ([5]; aliquots dissolved in FBS enriched medium): > 6 months
- amount of drug dissolved at a given time, average (SD) [5, 8]: 50.7 ± 8.1%
- amount of drug dissolved at a given time, range [5, 8]: 40 to 61%
- GI50 [6, 7]: 9.4 ± 1.5 µM
- IC50 [6, 7]: 10.7 ± 1.3 µM
- LC99 [6, 7]: 17.7 ± 0.8 µM
- TGI [6, 7]: 14.1 ± 1.5 µM and 14.1 µM
- Dose reduction value 1LP65 ÷ 4SP65 ([6]; at GI50): 8.3 fold
- Dose reduction value 1LP65 ÷ 4SP65 ([6]; at IC50): 8.4 fold
- Dose reduction value 1LP65 ÷ 4SP65 ([6]; at LC50): 9.5 fold
- Dose reduction value 1LP65 ÷ 4SP65 ([6]; at LC99): 10 fold
- Dose reduction value 1LP65 ÷ 4SP65 ([6]; at TGI): 8.8 fold
- Fold increase in efficacy ([6]; at GI50): 36 fold
- Fold increase in efficacy ([6]; at IC50): 20** fold
- Fold increase in efficacy ([6]; at LC50, GoE = gain of effect): 5.3^c fold
- Fold increase in efficacy ([6]; at LC99, GoE = gain of effect): 4.3^c fold
- Fold increase in efficacy ([6]; at TGI, GoE = gain of effect): 7.4^c fold
- GI50 [6, 9]: 12.3 ± 1.1 µM
- IC50 [6, 9]: 13.3 ± 1 µM
- LC99 [6, 10]: 18.2 ± 0.4 µM
- TGI [6, 10]: 16.9 ± 0.6 µM
